Patent US20090306218A1, “Antimicrobial formulations” (priority 2006, published 2009)
Where two headings read alike, the source gives them in different places.

Tests used:
[1] = tested on: Propionibacterium acnes NCTC 737; assay: Disc diffusion assay (DDA); type: cell-based; settings: for zone of inhibition at 200 µg/disc: Cutibacterium acnes, NCTC737, read-out: DDA (zone of inhibition diameter); for DDA (zone of inhibition diameter): P. acnes NCTC 737
Method: (d) Disc Diffusion Assay (DDA)
This is an internationally recognised standard method for qualitatively assessing the antimicrobial activity of a compound.
A sterile paper disc was impregnated with a sample of the test compound in a suitable solvent and 30 minutes allowed for the solvents to evaporate (where possible). The disc was then placed on an agar plate onto which the test micro-organism had been inoculated. The plate was then incubated under the conditions described above, following which it was examined visually for signs of microbial growth. […] The diameter of this zone of “inhibition” was measured using a ProtoCOL™ automated zone sizer (Synbiosis, Cambridge, UK).
(§1) The TBHQ was dissolved in ethanol and the bismuth salts in DMSO.
(§2) All the (S)DDA experiments were conducted in triplicate.
(§3) DDA assays, as described above, were carried out using each of the test compounds individually. The quinone/bismuth salt combinations were then subjected to the SDDA assay described above.
(§4) The quinones and bismuth salts were all dissolved in DMSO.

[2] = tested on: Propionibacterium acnes NCTC 737; assay: Synergy disc diffusion assay (SDDA); type: cell-based; settings: P. acnes NCTC 737; for SDDA with TBHQ (zone diameter): bismuth salt together with TBHQ, 200 μg of each per disc; for SDDA increase: combination with TBHQ vs the single compound with the larger zone; for SDDA area increase: combination with TBHQ
Method: (e) Synergy Disc Diffusion Assay (SDDA)
Each bismuth salt was then subjected, together with the TBHQ, to the SDDA assay described above.
as §1, §2, §3, §4

[3] = tested on: Propionibacterium acnes NCTC 737; assay: Minimum bactericidal concentration (MBC) assay; type: cell-based; settings: P. acnes NCTC 737
Method: (b) Minimum Bactericidal Concentration (MBC) Assay
(§5) MIC, MBC and DDA assays, as described above, were carried out using the test compound t-butyl-p-hydroquinone (TBHQ) and a range of bismuth salts (all ex-Sigma Aldrich, UK).

[4] = tested on: Propionibacterium acnes NCTC 737; assay: Minimum inhibitory concentration (MIC) assay, liquid medium; type: cell-based; settings: P. acnes NCTC 737
Method: (a) Minimum Inhibitory Concentration (MIC) Assay
This is a standard international method for quantitatively assessing the antimicrobial activity of a compound in a liquid medium. The method used a sterile 96-well microtitre plate, capable of holding about 200 μl of liquid per well. […] The culture medium was as described above.
After incubation, the microtitre plate was examined visually (with the aid of a light box) for cloudiness in each well, which would indicate microbial growth. The MIC value was recorded as the lowest concentration of test compound required to inhibit microbial growth, i.e., the lowest concentration for which the liquid in the well remained clear.
The assays were conducted in duplicate (minimum) and included both negative (culture medium with no micro-organisms) and positive (culture medium plus diluting solvent plus micro-organism) controls.
as §5

[5] = tested on: P. acnes PRP panel strains; type: cell-based, Propionibacterium acnes
[6] = tested on: P. granulosum panel strains; assay: Agar dilution MIC assay, panel of propionibacteria; type: cell-based, Propionibacterium granulosum
[7] = 200 μg per disc (2-t-butyl-p-benzoquinone 100 μg per disc), in DMSO, Table 5
[8] = P. acnes PRP-002, resistance phenotype Tet/MLS
[9] = P. acnes PRP-003, resistance phenotype Tet
[10] = P. acnes PRP-004, resistance phenotype Tet
[11] = P. acnes PRP-007, resistance phenotype Clin
[12] = P. acnes PRP-008, resistance phenotype Clin
[13] = P. acnes PRP-010, resistance phenotype MLSK
[14] = P. acnes PRP-017, resistance phenotype MLS
[15] = P. acnes PRP-023, resistance phenotype MLSK
[16] = P. acnes PRP-026, resistance phenotype MLS
[17] = P. acnes PRP-039, resistance phenotype Tet/MLS
[18] = P. acnes PRP-046, resistance phenotype None
[19] = P. acnes PRP-053, resistance phenotype Tet/MLS
[20] = P. acnes PRP-059, resistance phenotype MLS
[21] = P. acnes PRP-068, resistance phenotype Ery
[22] = P. acnes PRP-101, resistance phenotype Tet/MLS
[23] = P. acnes PRP-102, resistance phenotype Tet/MLS
[24] = P. granulosum NCTC 11865, resistance phenotype None
[25] = P. granulosum PRP-005, resistance phenotype MLSK
[26] = P. granulosum PRP-006, resistance phenotype MLS
[27] = P. granulosum PRP-019, resistance phenotype MLSK
[28] = P. granulosum PRP-021, resistance phenotype MLS
[29] = P. granulosum PRP-043, resistance phenotype MLS
[30] = P. granulosum PRP-044, resistance phenotype MLS
[31] = P. granulosum PRP-055, resistance phenotype None

## O=C1C=CC(=O)C(Cl)=C1 [2-chloro-p-benzoquinone]
[1]
  zone of inhibition at 200 µg/disc: 25.4 mm

## CC(C)(C)C1=CC(=O)C=CC1=O [2-t-butyl-p-benzoquinone]
[1]; [7]
  DDA (zone of inhibition diameter): 52.61 mm

## CC(=O)[O-].CC(=O)[O-].CC(=O)[O-].[Bi+3] [Bismuth acetate]
[2]; Table 2
  SDDA with TBHQ (zone diameter): 34.89 mm
  SDDA increase: 6.72 mm
  SDDA area increase: 53.4%
[3]; Table 1
  MBC: 7.8 µg/mL
  MIC/MBC ratio: 0.125
[1]; 200 μg per disc, Table 2
  DDA (zone of inhibition diameter): 28.17 mm
[4]; Table 1
  MIC: 0.98 µg/mL

## [Cl][Bi]([Cl])[Cl] [Bismuth chloride]
[2]; Table 2
  SDDA with TBHQ (zone diameter): 31.64 mm
  SDDA increase: 5.57 mm
  SDDA area increase: 47.29%
[3]; Table 1
  MBC: 3.9 µg/mL
  MIC/MBC ratio: 0.125
[1]; 200 μg per disc, Table 2
  DDA (zone of inhibition diameter): 26.07 mm
[4]; Table 1
  MIC: 0.49 µg/mL

## O=C([O-])CC(O)(CC(=O)[O-])C(=O)[O-].[Bi+3] [Bismuth citrate]
[2]; Table 2
  SDDA with TBHQ (zone diameter): 43.41 mm
  SDDA increase: 8.94 mm
  SDDA area increase: 58.59%
[3]; Table 1
  MBC: 7.8 µg/mL
  MIC/MBC ratio: 0.125
[5]; [8]
  MIC (agar dilution): 7.8 µg/mL
[5]; [9]
  MIC (agar dilution): 3.9 µg/mL
[5]; [10]
  MIC (agar dilution): 7.8 µg/mL
[5]; [11]
  MIC (agar dilution): 3.9 µg/mL
[5]; [12]
  MIC (agar dilution): 3.9 µg/mL
[5]; [13]
  MIC (agar dilution): 7.8 µg/mL
[5]; [14]
  MIC (agar dilution): 3.9 µg/mL
[5]; [15]
  MIC (agar dilution): 3.9 µg/mL
[5]; [16]
  MIC (agar dilution): 3.9 µg/mL
[5]; [17]
  MIC (agar dilution): 0.98 µg/mL
[5]; [18]
  MIC (agar dilution): 3.9 µg/mL
[5]; [19]
  MIC (agar dilution): 3.9 µg/mL
[5]; [20]
  MIC (agar dilution): 7.8 µg/mL
[5]; [21]
  MIC (agar dilution): 7.8 µg/mL
[5]; [22]
  MIC (agar dilution): 7.8 µg/mL
[5]; [23]
  MIC (agar dilution): 7.8 µg/mL
[6]; [24]
  MIC (agar dilution): 7.8 µg/mL
[6]; [25]
  MIC (agar dilution): 7.8 µg/mL
[6]; [26]
  MIC (agar dilution): 7.8 µg/mL
[6]; [27]
  MIC (agar dilution): 7.8 µg/mL
[6]; [28]
  MIC (agar dilution): 7.8 µg/mL
[6]; [29]
  MIC (agar dilution): 3.9 µg/mL
[6]; [30]
  MIC (agar dilution): 7.8 µg/mL
[6]; [31]
  MIC (agar dilution): 7.8 µg/mL
[1]; [7]
  DDA (zone of inhibition diameter): 32.97 mm
[1]; 200 μg per disc, Table 2
  DDA (zone of inhibition diameter): 34.47 mm
[4]; Table 1
  MIC: 0.98 µg/mL

## O=[N+]([O-])[O-].O=[N+]([O-])[O-].O=[N+]([O-])[O-].O=[N+]([O-])[O-].[Bi+3].[Bi+3].[Bi+3].[Bi+3].[Bi+3].[O-2].[OH-].[OH-].[OH-].[OH-].[OH-].[OH-].[OH-].[OH-].[OH-] [Bismuth subnitrate]
[2]; Table 4
  SDDA with TBHQ (zone diameter): 30.39 mm
  SDDA increase: 5.48 mm
  SDDA area increase: 48.84%
[3]; separate experiment, Table 3
  MBC: 7.8 µg/mL
  MIC/MBC ratio: 0.5
[5]; [8]
  MIC (agar dilution): 7.8 µg/mL
[5]; [9]
  MIC (agar dilution): 7.8 µg/mL
[5]; [10]
  MIC (agar dilution): 7.8 µg/mL
[5]; [11]
  MIC (agar dilution): 7.8 µg/mL
[5]; [12]
  MIC (agar dilution): 7.8 µg/mL
[5]; [13]
  MIC (agar dilution): 7.8 µg/mL
[5]; [14]
  MIC (agar dilution): 7.8 µg/mL
[5]; [15]
  MIC (agar dilution): 7.8 µg/mL
[5]; [16]
  MIC (agar dilution): 7.8 µg/mL
[5]; [17]
  MIC (agar dilution): 7.8 µg/mL
[5]; [18]
  MIC (agar dilution): 7.8 µg/mL
[5]; [19]
  MIC (agar dilution): 7.8 µg/mL
[5]; [20]
  MIC (agar dilution): 7.8 µg/mL
[5]; [21]
  MIC (agar dilution): 7.8 µg/mL
[5]; [22]
  MIC (agar dilution): 7.8 µg/mL
[5]; [23]
  MIC (agar dilution): 7.8 µg/mL
[6]; [24]
  MIC (agar dilution): 7.8 µg/mL
[6]; [25]
  MIC (agar dilution): 7.8 µg/mL
[6]; [26]
  MIC (agar dilution): 7.8 µg/mL
[6]; [27]
  MIC (agar dilution): 7.8 µg/mL
[6]; [28]
  MIC (agar dilution): 7.8 µg/mL
[6]; [29]
  MIC (agar dilution): 7.8 µg/mL
[6]; [30]
  MIC (agar dilution): 7.8 µg/mL
[6]; [31]
  MIC (agar dilution): 7.8 µg/mL
[1]; [7]
  DDA (zone of inhibition diameter): 24.91 mm
[1]; 200 μg per disc, separate experiment, Table 4
  DDA (zone of inhibition diameter): 24.91 mm
[4]; separate experiment, Table 3
  MIC: 3.9 µg/mL

## CC1=CC(=O)C=CC1=O [Methyl-p-benzoquinone]
[1]
  zone of inhibition at 200 µg/disc: 39.9 mm
